Results on 6 compounds are retold here after US12163953B2, “P-phenylene ethynylene compounds as bioactive and detection agents” (STC.UNM, priority 2014, dated 2024).

In one series the test system is B. atrophaeus spores. It is filed as cell-based, Bacillus atrophaeus.
The test system of series [1] is B. atrophaeus vegetative cells. It is filed as cell-based, Bacillus atrophaeus. The note with it: 10 μg/mL.
The subject of series [2] is B. anthracis Sterne vegetative cells. The format is cell-based, Bacillus anthracis Sterne. The note with it: 10 μg/mL, light-activated PE.
Series [3] relates to B. anthracis Sterne spores. It is filed as cell-based, Bacillus anthracis Sterne. The conditions noted are these: within 90 minutes.
Series [4] in a line: Absorbance and fluorescence of −1C with AChE inhibitors without LaCh (aggregation control). The format is physicochemical. The conditions noted are these: 5 uM −1C with 5 ug/mL inhibitor, no LaCh. On the procedure: As shown in FIGS. 12A-C, it is clear that inhibition of AChE by several different inhibitors is apparent in the attenuated loss of fluorescence compared with the reference solution, with no inhibitor. […] FIGS. 13A-B illustrate (A) absorbance and (B) fluorescence (Ex: 370 nm) of 5 uM −1C with 5 ug/mL of either LaCh or one of the three AChE Inhibitors used in this study. […] Further, there is little overlap between the fluorescence of the TAE-1/IPE complex and that of the PE/LaCh complex.

A further series addresses T1, HEWL amyloid fibrils (Gallus gallus, UniProt P00698).
T1 construct: Lyophilized HEWL was dissolved at 10 mg/mL in 10 mM pH 3 sodium citrate buffer with 0.1 M NaCl; purchased Sigma-Aldrich; host or cells: hen egg white; fibrillised in house (pH 3, 70 °C, stirred)
Description: Induced circular dichroism of PE-amyloid complexes. The format is binding, hen. The conditions noted are these: PEs 10 μM, HEWL 10 μM monomer basis. On the procedure: Circular dichroism measurements were performed to determine if the intrinsic chirality of the HEWL fibrils was transferred to the PE chromophore by a chiral backbone twist or an “excitonic” chiral supramolecular aggregate. CD spectroscopy (CPEs in PB with HEWL monomer and with HEWL amyloid; performed for (a): PE1+; (b): PE1−; (c): PE2+; (d): PE3+; PEs 10 μM, HEWL 10 μM monomer basis/0.5 mg/mL) indicated induced circular dichroism of PEs when bound to HEWL amyloids. As expected, no PE had optical activity by itself in phosphate buffer solution and none of the PEs had any CD with HEWL monomer, including PE1−. […] PE2+ and PE3+ gave rise to similar CD spectra, with more intense bands in the spectrum for PE3+.
PEs and protein samples were diluted in phosphate buffer, gently vortexed, and read in a 1 mm pathlength quartz CD cuvette using an Aviv 410 CD spectrometer (Aviv Biomedical, Lakewood, NJ), 15 s averaging time. A blank spectrum (PB only) was subtracted from each sample to remove background activity. Error bars are standard deviation over multiple reads of a single sample as reported by the instrument.
(CD spectra are sensitive to the conformation of chiral molecules.)

Another series concerns the target T2, HEWL monomers (Gallus gallus, UniProt P00698).
T2 construct: Hen egg white lysozyme and Thioflavin T were obtained from Sigma-Aldrich Chemical Company; purchased Sigma-Aldrich; host or cells: hen egg white
Description: Fluorescence interaction of PEs with HEWL monomers. The format is binding, hen. The note with it: HEWL monomers 5 μM/0.25 mg/mL. On the procedure:
Excitation and emission spectra of PEs in phosphate buffer alone, with monomeric HEWL and with HEWL amyloids (8 h incubated) are shown in FIGS. 18A-H, and relevant photophysical properties are summarized in Table 1. FIGS. 18A-H illustrate excitation (A, B, C, D) and emission (right; E, F, G. H) spectra of PEs (A, E: PE1+; B, F: PE1−; C, G: PE2+; D, H: PE3+) in phosphate buffer (PB, pH 7.4, 10 mM) alone (long dashed line) with HEWL monomers (short dashed line) and with HEWL amyloids (solid line); PE concentration: 500 nM, protein concentration: 5 μM monomer basis/0.25 mg/mL; emission and excitation wavelengths, respectively, were chosen as shown in Table 1 for each sample. […] Absorbance spectra were taken, but background light scattering from insoluble amyloid aggregates made them difficult to interpret, so “fluorescence detected absorbance” in the form of excitation spectra was used instead. […]
[formula] where x is PE concentration (with protein concentration fixed), y is PE fluorescence intensity. […] Fits to the data for the three cationic PEs produced Fmax values close to the observed saturation value, and the other two parameters are reported as calculated. […]
For studies of fluorescence enhancement vs. protein incubation time, dyes were mixed with protein sample in phosphate buffer (10 mM, pH 7.4) at equal monomer concentration of 10 μM in the wells of a standard 96-well plate. […]

Series [5] is described as follows: Photophysical properties of PEs alone (excitation/emission spectra, fluorescence yield). It is filed as physicochemical. On the procedure:
Excitation and emission spectra of PEs in phosphate buffer alone, with monomeric HEWL and with HEWL amyloids (8 h incubated) are shown in FIGS. 18A-H, and relevant photophysical properties are summarized in Table 1. FIGS. 18A-H illustrate excitation (A, B, C, D) and emission (right; E, F, G. H) spectra of PEs (A, E: PE1+; B, F: PE1−; C, G: PE2+; D, H: […]) alone (long dashed line) with HEWL monomers (short dashed line) and with HEWL amyloids (solid line); PE concentration: 500 nM, protein concentration: 5 μM monomer basis/0.25 mg/mL; emission and excitation wavelengths, respectively, were chosen as shown in Table 1 for each sample. A 10:1 molar ratio of protein to PE was used for these experiments. Absorbance spectra were taken, but background light scattering from insoluble amyloid aggregates made them difficult to interpret, so “fluorescence detected absorbance” in the form of excitation spectra was used instead. Normalized excitation and emission spectra, in which peak shifts and lineshape changes of spectra were somewhat easier to visualize, were used. […] PE1+ (FIG. 18E) had no change in wavelength or lineshape of emission spectrum, just a large increase in intensity when mixed with amyloids. The excitation spectra (FIGS. 18A, B, C, D) show a notable bathochromic shift for each PE in solution mixed with amyloid, of 23, 27, 35 and 29 nm for PE1+, PE2+, PE3+ and PE1−, respectively, observing only the low-energy band. The high-energy band, less relevant for imaging purposes, was also bathochromically shifted. […] PE1− had similar excitation spectrum (FIG. 18B) with monomer and amyloid, except for a large intensity difference.
(§1) For studies of fluorescence enhancement vs. protein incubation time, dyes were mixed with protein sample in phosphate buffer (10 mM, pH 7.4) at equal monomer concentration of 10 μM in the wells of a standard 96-well plate. Emission spectra were obtained using top read with a SpectraMax M2e plate-reading spectrophotometer (Molecular Devices, Sunnyvale, CA). Experiments were performed in duplicate and errors are reported as standard deviation. For analysis of bound PE excitation and emission spectra and protein-PE energy transfer, PEs (500 nM) were mixed with protein sample (5 μM, monomer basis) in phosphate buffer and the solution transferred to a quartz, fluorometry cuvette. Spectra were obtained on a PTI QuantaMaster 40 steady state spectrofluorometer (HORIBA Scientific, Edison, NJ).

The next series has as its target T3, HEWL amyloids (Gallus gallus, UniProt P00698).
T3 construct: Lyophilized HEWL was dissolved at 10 mg/mL in 10 mM pH 3 sodium citrate buffer with 0.1 M NaCl; purchased Sigma-Aldrich; host or cells: hen egg white; fibrillised in house (pH 3, 70 °C, stirred)
Nature of the series: Excitation and emission spectra of PEs with HEWL amyloids. It is filed as binding, hen. The note with it: PE 500 nM, HEWL amyloid 5 μM monomer basis. On the procedure: Excitation and emission spectra of PEs in phosphate buffer alone, with monomeric HEWL and with HEWL amyloids (8 h incubated) are shown in FIGS. 18A-H, and relevant photophysical properties are summarized in Table 1. FIGS. 18A-H illustrate excitation (A, B, C, D) and emission (right; E, F, G. H) spectra of PEs (A, E: PE1+; B, F: PE1−; C, G: PE2+; D, H: PE3+) in phosphate buffer (PB, pH 7.4, 10 mM) alone (long dashed line) with HEWL monomers (short dashed line) and with HEWL amyloids (solid line); PE concentration: 500 nM, protein concentration: 5 μM monomer basis/0.25 mg/mL; emission and excitation wavelengths, respectively, were chosen as shown in Table 1 for each sample. A 10:1 molar ratio of protein to PE was used for these experiments. Absorbance spectra were taken, but background light scattering from insoluble amyloid aggregates made them difficult to interpret, so “fluorescence detected absorbance” in the form of excitation spectra was used instead. Normalized excitation and emission spectra, in which peak shifts and lineshape changes of spectra were somewhat easier to visualize, were used. […] PE1+ (FIG. 18E) had no change in wavelength or lineshape of emission spectrum, just a large increase in intensity when mixed with amyloids. The excitation spectra (FIGS. 18A, B, C, D) show a notable bathochromic shift for each PE in solution mixed with amyloid, of 23, 27, 35 and 29 nm for PE1+, PE2+, PE3+ and PE1−, respectively, observing only the low-energy band. The high-energy band, less relevant for imaging purposes, was also bathochromically shifted. […] PE1− had similar excitation spectrum (FIG. 18B) with monomer and amyloid, except for a large intensity difference.
Lyophilized HEWL was dissolved at 10 mg/mL in 10 mM pH 3 sodium citrate buffer with 0.1 M NaCl. The solution was incubated in a 70C oil bath and magnetically stirred at 250 rpm for 12 h, and aliquots were withdrawn at half-hour intervals. […] Half of each aliquot was immediately diluted into pH 7.4 phosphate buffer to prevent further influence of acidic conditions and stored at 4C.
as §1

For series [6], the target named is T4, HEWL fibrils incubated for different lengths of time (Gallus gallus, UniProt P00698).
T4 construct: Lyophilized HEWL was dissolved at 10 mg/mL in 10 mM pH 3 sodium citrate buffer with 0.1 M NaCl; purchased Sigma-Aldrich; host or cells: hen egg white; fibrillised in house (pH 3, 70 °C, stirred)
Description: Fluorescence enhancement of dyes versus HEWL incubation time. The format is binding, hen. On the procedure: Hen egg white lysozyme (HEWL) was used to form fibrillary amyloid aggregates for use in this study. […] For these experiments. HEWL (Sigma-Aldrich) was incubated at 70′C and a concentration of 350 μM in pH 3 sodium citrate buffer (10 mM) with 100 mM NaCl.
A plot of normalized fluorescence enhancement for all four PEs and Thioflavin T with HEWL fibrils incubated for different lengths of time is shown in FIG. 15. PE1+ and PE2+ track amyloid formation in roughly the same way as ThT, showing a sigmoidal curve with onset of a logarithmic growth phase occurring at the same time, around 1 hour of incubation. The plateau phase, as monitored by fluorescence of any of those three PEs or ThT, appeared at 2 hours incubation.
as §1

A short description of series [7]: Absorbance/fluorescence spectroscopy and fluorescence quantum yield (comparative method) of PEs and PE/substrate aggregates. The format is physicochemical.
The mark [8] stands for this setting: phosphate buffer pH 7.4, 10 mM, PE 500 nM.

Structures can show the parent of a compound that is named as a salt. Where two headings read alike, the source gives them in different places.

T3 sequence (P00698 19-147): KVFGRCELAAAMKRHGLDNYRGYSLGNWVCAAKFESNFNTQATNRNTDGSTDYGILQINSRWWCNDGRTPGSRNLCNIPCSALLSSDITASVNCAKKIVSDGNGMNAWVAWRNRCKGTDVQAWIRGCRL
T4 sequence (P00698 19-147): as above
T2 sequence (P00698 19-147): as above
T1 sequence (P00698 19-147): as above

Consider `C[N+](C)(C)CCOc1ccc(C#CC2=CC=C(C#Cc3ccc(OCC[N+](C)(C)C)cc3)C2)cc1.I` [EO-PE (Th,C2)], for which, in the series with B. atrophaeus spores, the “effect of increasing PE concentration on death or germination of spores” value is “no increased effect”, the “spores in which the water influx event progressed to stain uptake matching vegetative cells (germination)” value is 39%, the “spores still fluorescing like untreated spores (S gate)” value is recorded as 61% and the “spores that successfully germinate” value turned out to be 15%. This compound returned a cell death in series [1] (1 hour, light-activated (UVA)) of 99%. Also, the “uptake of PI relative to untreated cells” value in [1] (1 hr, dark) is on record as “increased tenfold”. The same compound returned a cells killed in series [1] (1 hr, in the absence of light) of 73%. Besides, the “log reduction of vegetative cells” value in series [2] (within 30 minutes) is on record as around 4 log. For the same compound, the “log reduction of vegetative cells” value in [2] (within 90 minutes) was found to be 5 log. For the same compound, the killing of spores in series [3] (20 ng PE/spore, light-activated PE) came out at 99%. In [3] (absence of UVA light), the “spores induced to germinate” value is recorded as 81% and the “spores not killed that germinate into viable colony-forming vegetative cells (of all spores)” value stood at 72%.

Regarding `COc1ccc(C(=O)NCc2ccc(OCCN(C)C)cc2)cc1OC` [Itopride, N-[[4-[2-(Dimethylamino)ethoxy]phenyl]methyl]-3,4-dimethoxy benzamidehydrochloride], in series [4], the “aggregation induced with −1C” value is “no significant aggregation”.

Regarding `CCC1(c2cccc(O)c2)CCCCN(C)C1.Cl` (stereo not shown) [Meptazinol, 3-(3-ethylhexahydro-1-methyl-1H-azepin-3-yl)-phenol hydrochloride], in series [4], the “aggregation induced with −1C” value is given as “no significant aggregation”.

As for `CCOC(=O)c1ccc(C#Cc2cc(OCCS(=O)(=O)O)c(C#Cc3ccc(C(=O)OCC)cc3)cc2OCCS(=O)(=O)O)cc1` [PE1−], the “induced circular dichroism with HEWL amyloid” value on HEWL amyloid fibrils is listed as “strong induced CD with a negative Cotton effect”. In addition, the “binding to HEWL monomers” value at HEWL monomers was “linear and non-saturable”. For the same compound, the “λem (H2O)” value in [5] (H2O) is reported as 454 nm. Moreover, the “λem (PB)” value in series [5] (phosphate buffer) is listed as 454 nm. Further, in series [5] (setting [8]), the “λex (PB), high-energy band” value is reported as 314 nm and the “λex (PB), low-energy band” value is on record as 370 nm. For the same compound, the “bathochromic shift of excitation spectrum, low-energy band, with amyloid” value at HEWL amyloids is listed as 29 nm. For the same compound, on HEWL amyloids (PB), the “λem (PB w/ HEWL)” value is recorded as 439 nm; the “λex (PB w/HEWL), high-energy band” value is 327 nm; the “λex (PB w/HEWL), low-energy band” value worked out at 399 nm. Further, in [6] (equimolar concentrations, 10 μM), the “fluorescence enhancement with monomeric species versus amyloid” value is “greater fluorescence enhancement when mixed with monomeric species than with amyloid”. In series [7] (5 uM PE with 32 uM LaCh), the “enhancement of fluorescence quantum yield, LaCh complex versus PE alone” value worked out at 66 times and the “fluorescence quantum yield of aggregate with LaCh” value is given as 0.991. The “centre of structured emission upon aggregation with substrate” value in [7] (+2C with DLPG, −1C with LaCh) is recorded as 442 nm. Also, the “fluorescence quantum yield, PE alone” value in [7] (in water, corrected value of this study) was found to be 0.015.

As to `C[N+](C)(C)CCOC(=O)c1ccc(Oc2nc(Oc3ccc(C(=O)OCC[N+](C)(C)C)cc3)nc(Oc3ccc(C(=O)OCC[N+](C)(C)C)cc3)n2)cc1.[I-].[I-].[I-]` [TAE-1], the “aggregation induced with −1C” value in series [4] is “red-shifted absorbance and a strongly red-shifted and broadened green fluorescence”.

Regarding `Cc1ccc2c(c1)sc(-c1ccc(N(C)C)cc1)[n+]2C.[Cl-]` [ThT, Thioflavin T, reference compound], the “HEWL incubation time at which the plateau phase of fluorescence enhancement appears” value in series [6] (dye 10 μM, HEWL 10 μM monomer basis) came out at 2 h.
